# From patent US20030187007A1, “Inhibitors of protein kinase for the treatment of disease” (priority 2001, published 2003)
# Where a name gives a salt, the structure may show the parent alone.
# Columns and labels:
# Format in all cases: biochemical
# [1] = molecular target: CDK2 complexed with cyclin A (Homo sapiens, UniProt P24941); assay: Cyclin dependent kinase activity assay, phosphorylation of synthetic peptide PKTPKKAKKLRRR; details: 0.1 mM ATP, read-out: CDK 2 Activity*
# Description: (§1) The assay of cyclin dependent kinase activity was determined by monitoring the phosphorylation of a synthetic peptide, PKTPKKAKKLRRR. The assay mixture contained 0.1 mM cold ATP, ^33P-γ-ATP (2000-4000 cpm/μL), 0.1 mM peptide, 1 mM DTT, and 10 mM MgCl2 in 100 mM HEPES buffer pH 7.4. The assay mixture, along with inhibitor and CDK enzyme (0.3-0.4 U/mL; either CDK5 complexed with p25, CDK2 complexed with complexed with cyclin A), was mixed together in a microtiter plate in a final volume of 40 μL, sealed and incubated for 2 hours at 30° C. Following incubation, a 15 μL aliquot was added to a Whatman P81 filtration plate containing 100 μL 0.5% phosphoric acid. This mixture was allowed to stand for 5 minutes prior to filtration on a vacuum manifold. The filter plate was washed with 5 successive additions of 300 μL 0.5% phosphoric acid. The filtration plate was air dried for 10 minutes before sealing the bottom. After addition of scintillation fluid to the sealed plate, phosphorylated peptide was quantified in a scintillation counter.
# CDK5 complexed with p25 = CDK5 complexed with p25 (Homo sapiens, UniProt Q00535); assay: as above; details: CDK5 complexed with p25, 0.1 mM ATP; read-out: CDK 5 Activity*
# Description: as §1
# KDR = KDR (Homo sapiens, UniProt P35968); assay: Enzyme assay for  (KDR), IC50 determination; details: 50 nM KDR, 500 μM ATP
# Description: Enzyme assays for IC50 determinations were performed in 96-well titer plates, in a total reaction volume of 50 μL. Each reaction contained 1.5 μL of appropriate dilutions of inhibitor, 50 mM Hepes, pH 7.4, 1 mM DTT, 10 mM magnesium chloride, 2 mM phospho-poly(E4Y) (Sigma Chemical Company), 500 μM unlabeled ATP, 0.0025 μM [^33P]ATP (Amersham Pharmacia Biotech), and 50 nM KDR. All components except KDR were added to the wells, and the reaction was started by the addition of the enzyme. The reactions were mixed and incubated at room temperature for 1 hr, after which the reactions were quenched by the addition of 50 μL of 8% phosphoric acid. At this point, 90 μL aliquots of the samples were applied to positively charged DEAE 96-well filter plates (Millipore Corporation MADENOB10). The plates were incubated for 30 min at room temperature. The samples were aspirated and the wells were washed 3 times with 200 μL of 0.5% phosphoric acid. To each well, 50 μL of scintillation cocktail was added and counted for 60 sec in a TopCount microplate scintillation counter (Packard Instrument Company). The concentration of a compound that inhibited the activity of KDR by 50% (IC50) was determined based its inhibition curve.
# CDK5 complexed with p25, sequence (Q00535 whole entry): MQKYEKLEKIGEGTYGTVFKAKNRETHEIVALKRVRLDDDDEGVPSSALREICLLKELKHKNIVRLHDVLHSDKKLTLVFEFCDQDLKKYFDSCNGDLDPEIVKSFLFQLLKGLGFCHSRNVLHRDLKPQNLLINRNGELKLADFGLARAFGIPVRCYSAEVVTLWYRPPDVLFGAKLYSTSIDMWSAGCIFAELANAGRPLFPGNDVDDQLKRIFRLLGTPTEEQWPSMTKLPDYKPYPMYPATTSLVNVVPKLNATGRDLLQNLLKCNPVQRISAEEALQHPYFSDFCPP
# CDK5 complexed with p25, sequence (Q15078 99-307 partner limits assumed): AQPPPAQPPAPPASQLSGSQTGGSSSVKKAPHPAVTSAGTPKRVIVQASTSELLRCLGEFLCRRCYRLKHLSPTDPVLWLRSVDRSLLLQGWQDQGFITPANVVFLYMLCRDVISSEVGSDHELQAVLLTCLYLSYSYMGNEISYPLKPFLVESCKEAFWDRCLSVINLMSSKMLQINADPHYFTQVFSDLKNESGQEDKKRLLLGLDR
# KDR, sequence (P35968 20-1356): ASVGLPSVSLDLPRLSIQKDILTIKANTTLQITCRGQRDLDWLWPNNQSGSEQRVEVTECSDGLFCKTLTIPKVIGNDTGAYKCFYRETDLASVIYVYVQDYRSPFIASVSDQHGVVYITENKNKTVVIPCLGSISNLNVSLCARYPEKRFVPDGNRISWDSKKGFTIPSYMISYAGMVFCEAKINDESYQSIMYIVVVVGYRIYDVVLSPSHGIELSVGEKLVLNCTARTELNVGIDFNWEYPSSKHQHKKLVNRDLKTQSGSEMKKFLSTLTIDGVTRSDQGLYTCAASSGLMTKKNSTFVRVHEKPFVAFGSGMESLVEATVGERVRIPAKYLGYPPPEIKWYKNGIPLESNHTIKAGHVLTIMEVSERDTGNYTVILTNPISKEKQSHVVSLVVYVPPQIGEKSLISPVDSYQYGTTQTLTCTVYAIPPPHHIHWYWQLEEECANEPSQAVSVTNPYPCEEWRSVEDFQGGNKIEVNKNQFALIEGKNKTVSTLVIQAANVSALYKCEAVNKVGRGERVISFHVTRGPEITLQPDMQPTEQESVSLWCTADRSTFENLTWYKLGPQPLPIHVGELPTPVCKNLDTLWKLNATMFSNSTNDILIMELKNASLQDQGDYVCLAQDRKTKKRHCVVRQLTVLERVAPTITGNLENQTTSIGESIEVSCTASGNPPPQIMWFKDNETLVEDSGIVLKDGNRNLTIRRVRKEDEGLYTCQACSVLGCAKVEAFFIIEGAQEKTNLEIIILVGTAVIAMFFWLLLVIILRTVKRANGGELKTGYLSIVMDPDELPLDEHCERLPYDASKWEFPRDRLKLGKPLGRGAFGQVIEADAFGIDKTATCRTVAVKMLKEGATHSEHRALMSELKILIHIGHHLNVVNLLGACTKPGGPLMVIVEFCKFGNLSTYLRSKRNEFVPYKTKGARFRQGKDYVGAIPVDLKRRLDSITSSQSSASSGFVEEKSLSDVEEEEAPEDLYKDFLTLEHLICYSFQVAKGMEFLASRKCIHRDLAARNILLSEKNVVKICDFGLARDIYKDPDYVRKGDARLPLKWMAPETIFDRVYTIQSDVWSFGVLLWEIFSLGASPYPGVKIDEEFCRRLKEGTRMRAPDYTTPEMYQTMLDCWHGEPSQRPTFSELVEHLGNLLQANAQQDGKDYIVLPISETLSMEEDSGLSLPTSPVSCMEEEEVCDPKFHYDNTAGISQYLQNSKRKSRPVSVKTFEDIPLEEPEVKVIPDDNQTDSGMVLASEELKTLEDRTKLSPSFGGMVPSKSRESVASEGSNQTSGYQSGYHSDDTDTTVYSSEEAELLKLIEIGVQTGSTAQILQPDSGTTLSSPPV
SMILES,IC50 [1],IC50 (CDK5 complexed with p25),IC50 (KDR)
"NC(=O)N/N=C/c1c(O)ccc2ccccc12 [Example 41, 2-[(2-Hydroxy-1-naphthyl)methylidene]hydrazine-1-carbamide hydrochloride]",< 500 nM,< 500 nM,
"NC(=S)N/N=C/c1c(O)ccc2ccccc12 [Example 42, 2-[(2-Hydroxy-1-naphthyl)methylidene]hydrazine-1-carbothioamide]",< 500 nM,< 500 nM,
NC(=S)N/N=C/c1cc2ccc(O)cc2cc1O [Example 43],< 500 nM,< 500 nM,
"Nc1nccc(-c2c(O)ccc3ccccc23)n1 [Example 46, 2-Amino-4-[1-(2-hydroxynaphthyl)]pyrimidine]",> 5000 nM,2000 to 5000 nM,
"Cc1cc(-c2cc(-c3ccc(O)cc3)ccc2O)nc(N)n1 [Example 47, 3-(2-Amino-6-methyl-pyrimidin-4-yl)-biphenyl-4,4′-diol]",< 500 nM,< 500 nM,
"Nc1ccc(-c2cc(-c3ccc(O)cc3)ccc2O)nc1 [Example 48, 3-(5-Amino-pyridin-2-yl)-biphenyl-4,4′-diol]",< 500 nM,< 500 nM,
"Nc1cccc(-c2cc(-c3ccc(O)cc3)ccc2O)n1 [Example 49, 3-(6-Amino-pyridin-2-yl)-biphenyl-4,4′-diol]",< 500 nM,< 500 nM,
"COc1cc(-c2cc(-c3ccc(O)cc3)ccc2O)nc(N)n1 [Example 50, 3-(2-Amino-6-methoxy-pyrimidin-4-yl)-biphenyl-4,4′-diol]",< 500 nM,< 500 nM,
"Nc1cnc(-c2cc(-c3ccc(O)cc3)ccc2O)nc1N [Example 51, 3-(4,5-Diamino-pyrimidin-2-yl)-biphenyl-4,4′-diol]",< 500 nM,< 500 nM,
"Nc1cc(-c2cc(-c3ccc(O)cc3)ccc2O)nc(N)n1 [Example 52, 3-(2,6-Diamino-pyrimidin-4-yl)-biphenyl-4,4′-diol]",< 500 nM,< 500 nM,
"Nc1nccc(-c2cc(-c3ccc(O)c(F)c3)ccc2O)n1 [Example 53, 3-(2-Amino-pyrimidin-4-yl)-3′-fluoro-biphenyl-4,4′-diol]",< 500 nM,< 500 nM,
"Nc1nc(Cl)cc(-c2cc(-c3ccc(O)cc3)ccc2O)n1 [Example 54, 3-(2-Amino-6-chloro-pyrimidin-4-yl)-biphenyl-4,4′-diol]",< 500 nM,< 500 nM,
"Nc1nc(NCCO)cc(-c2cc(-c3ccc(O)cc3)ccc2O)n1 [Example 55, 3-[2-Amino-6-(2-hydroxy-ethylamino)-pyrimidin-4-yl]-biphenyl-4,4′-diol]",< 500 nM,< 500 nM,
"Nc1nc(NCC(O)CO)cc(-c2cc(-c3ccc(O)cc3)ccc2O)n1 (stereo not drawn) [Example 56, 3-[2-Amino-6-(2,3-dihydroxy-propylamino)-pyrmidin-4-yl]-biphenyl-4,4′-diol]",< 500 nM,< 500 nM,
"Nc1nccc(-c2cc(-c3ccncc3)ccc2O)n1 [Example 62, 2-(2-Amino-pyrimidin-4-yl)-4-pyridin-4-yl-phenol]",< 500 nM,< 500 nM,
"Nc1nccc(-c2cc(-c3cccnc3)ccc2O)n1 [Example 63, 2-(2-Amino-pyrimidin-4-yl)-4-pyridin-3-yl-phenol]",> 5000 nM,< 500 nM,
"Nc1cccc(-c2ccc(O)c(-c3ccnc(N)n3)c2)n1 [Example 64, 4-(6-Amino-pyridin-2-yl)-2-(2-amino-pyrimidin-4-yl)-phenol]",< 500 nM,< 500 nM,
"Nc1ccc(-c2ccc(O)c(-c3ccnc(N)n3)c2)cn1 [Example 65, 4-(6-Amino-pyridin-3-yl)-2-(2-amino-pyrimidin-4-yl)-phenol]",< 500 nM,500 to 2000 nM,
"Nc1ncc(-c2ccc(O)c(-c3ccnc(N)n3)c2)cn1 [Example 66, 2-(2-Amino-pyrimidin-4-yl)-4-(2-amino-pyrimidin-5-yl)-phenol]",500 to 2000 nM,500 to 2000 nM,

SMILES,IC50 [1],IC50 (CDK5 complexed with p25),IC50 (KDR)
"Nc1nccc(-c2ccc(O)c(-c3ccnc(N)n3)c2)n1 [Example 68, 2,4-Bis-(2-amino-pyrimidin-4-yl)-phenol]",< 500 nM,< 500 nM,
"Nc1nccc(-c2cc(-c3ccc[nH]3)ccc2O)n1 [Example 69, 2-(2-Amino-pyrimidin-4-yl)-4-(1H-pyrrol-2-yl)-phenol]",< 500 nM,< 500 nM,
"Nc1nccc(-c2cc(-c3c[nH]c(=O)[nH]c3=O)ccc2O)n1 [Example 70, 5-[3-(2-Amino-pyrimidin-4-yl)-4-hydroxy-phenyl]-1 H-pyrimidine-2.4-dione]",> 5000 nM,2000 to 5000 nM,
"Nc1cccc(-c2cc(-c3ccnc(N)n3)ccc2O)n1 [Example 71, 2-(2-Aminopyridin-6-yl)-4-(2-aminopyrimidin-4-yl)-phenol]",< 500 nM,< 500 nM,
"Nc1nc(NCCCCCO)cc(-c2cc(-c3ccc(O)cc3)ccc2O)n1 [Example 77, 3-[2-Amino-6-(5-hydroxy-pentylamino)-pyrimidin-4-yl]-biphenyl-4,4′-diol]",< 500 nM,< 500 nM,
"Nc1nc(-c2cc(-c3ccc(O)cc3)ccc2O)cc(N2CCNCC2)n1 [Example 78, 3-(2-Amino-6-piperazin-1-yl-pyrimidin-4-yl)-biphenyl-4,4′-diol]",> 5000 nM,< 500 nM,
"Nc1nc(-c2cc(-c3ccc(O)cc3)ccc2O)cc(N2CCCC(CO)C2)n1 (stereo not drawn) [Example 82, 3-[2-Amino-6-(3-hydroxymethyl-piperidin-1-yl)-pyrimidin-4-yl]-biphenyl-4,4′-diol]",< 500 nM,< 500 nM,
"Nc1nc(N[C@@H](CO)c2ccccc2)cc(-c2cc(-c3ccc4[nH]ccc4c3)ccc2O)n1 [Example 93, 2-[2-Amino-6-(2-hydroxy-1 R-phenyl-ethylamino)-pyrimidin-4-yl]-4-(1H-indol-5-yl)-phenol]",,,< 1000 nM
"Nc1cccc(-c2ccc(O)c(-c3ccnc(N)n3)c2)c1 [Example 94, 3′-Amino-3-(2-amino-pyrimidin-4-yl)-biphenyl-4-ol]",,,1000 to 20000 nM
"CC(C)(C)OC(=O)n1cccc1-c1ccc(O)c(-c2ccnc(N)n2)c1 [Example 95, 2-[3-(2-Amino-pyrimidin-4-yl)-4-hydroxy-phenyl]-pyrrole-1-carboxylic acid t-butyl ester]",,,1000 to 20000 nM
"Nc1nc(N[C@@H](CO)Cc2c[nH]c3ccccc23)cc(-c2cc(-c3ccc(O)cc3)ccc2O)n1 [Example 96, 3-{2-Amino-6-[2-hydroxy-1R-(1H-indol-3-ylmethyl)-ethylamino]-pyrimidin-4-yl}-biphenyl-4,4′-diol]",,,1000 to 20000 nM
"Nc1nc(N[C@H](CO)c2ccccc2)cc(-c2cc(-c3ccc(O)cc3)ccc2O)n1 [Example 97, 3-[2-Amino-6-(2-hydroxy-1S-phenyl-ethylamino)-pyrimidin-4-yl]-biphenyl-4,4′-diol]",,,< 1000 nM
"COc1ccc(Nc2cc(-c3cc(-c4ccc(O)cc4)ccc3O)nc(N)n2)cc1 [Example 98, 3-[2-Amino-6-(4-methoxy-phenylamino)-pyrimidin-4-yl]-biphenyl-4,4′-diol]",,,< 1000 nM
"Nc1nc(N[C@H](CO)CSCc2ccccc2)cc(-c2cc(-c3ccc(O)cc3)ccc2O)n1 [Example 99, 3-[2-Amino-6-(2-benzylsulfanyl-1R-hydroxymethyl-ethylamino)-pyrimidin-4-yl]-biphenyl-4,4′-diol]",,,< 1000 nM
"Nc1nc(NCCc2c[nH]c3ccccc23)cc(-c2cc(-c3ccc(O)cc3)ccc2O)n1 [Example 100, 3-{2-Amino-6-[2-(1-indol-3-yl)-ethylamino]-pyrimidin-4-yl} biphenyl-4,4′-diol]",,,< 1000 nM
"Nc1nc(-c2cc(-c3ccc(O)cc3)ccc2O)cc(N2CCN(Cc3ccccc3)CC2)n1 [Example 101, 3-[2-Amino-6-(4-benzyl-piperazin-1-yl)-pyrimidin-4-yl]-biphenyl-4,4′-diol]",,,1000 to 20000 nM
"Nc1nc(N[C@@H](CO)Cc2c[nH]c3ccccc23)cc(-c2cc(-c3ccc(O)cc3)ccc2O)n1 [Example 102, 3-{2-Amino-6-[2-hydroxy-1R-(1 H-indol-3-ylmethyl)-ethylamino]-pyrimidin-4-yl}-biphenyl-4,4′-diol]",,,1000 to 20000 nM
"CC(C)[C@@H](CO)Nc1cc(-c2cc(-c3ccc(O)cc3)ccc2O)nc(N)n1 [Example 103, 3-[2-Amino-6-(I -hydroxymethyl-2-methyl-propylamino)pyrimidin-4-yl]-biphenyl-4.4′-diol]",,,1000 to 20000 nM
